Values joined by “and” are separate entries in the source; they are usually repeats but may differ in a detail not shown here. Equal entries are not always repeated. “Also recorded” adds a separate entry of the source.
Key:
PI5P4Kα [1] = biological target: T1, PI5P4Kα (Homo sapiens, UniProt P48426); test: Miniaturized 1536-well luciferase-coupled bioluminescence (ADP-Glo) PI5P4Kα enzyme activity assay; assay type: biochemical; conditions: for inhibitory activity against PI5P4Kα (in words): miniaturized assay / LOPAC1280 screen
T1 construct: made in house
T1 sequence (P48426 1-406): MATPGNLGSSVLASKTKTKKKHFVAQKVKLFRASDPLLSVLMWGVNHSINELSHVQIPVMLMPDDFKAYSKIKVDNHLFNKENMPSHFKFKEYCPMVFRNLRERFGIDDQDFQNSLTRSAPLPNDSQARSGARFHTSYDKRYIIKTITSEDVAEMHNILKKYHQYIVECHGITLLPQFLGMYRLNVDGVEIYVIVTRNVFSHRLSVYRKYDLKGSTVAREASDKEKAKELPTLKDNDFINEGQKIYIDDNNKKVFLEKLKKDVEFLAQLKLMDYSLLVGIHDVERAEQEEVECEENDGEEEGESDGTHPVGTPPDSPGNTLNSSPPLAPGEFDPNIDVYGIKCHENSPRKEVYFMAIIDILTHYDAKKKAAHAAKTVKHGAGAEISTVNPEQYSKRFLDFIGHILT
Procedure: PI5P4Kα (52.4 µL) was added to the lipid reagent (3 mL, described above) to form the enzyme-lipid mixture. First, 2 µL of the enzyme/lipid substrate reagent (2 µg/mL PI5P4Kα final concentration) were dispensed into a white solid-bottom 1536-well plate in columns 1–2, […] using a Flying Reagent Dispenser (FRD, Beckman Coulter, Fullerton, CA, USA). Into columns 3 and 4, 2 µL of a no-lipid and no-enzyme control were dispensed, respectively, where the lipid was replaced by DMSO or the enzyme was replaced by buffer (20 mM Hepes 7.4, 0.1% CHAPS) in the enzyme-lipid mixture. Then, 23 nL of the library compounds and control compounds were transferred by a 1536 pintool (Kalypsys Systems, San Diego, CA, USA) into wells 5–48 and 1–4, respectively. To initiate the reaction, 1 µL of the ATP solution (20 mM Hepes pH 7.4, 60 mM MgCl2, 0.015 mM ATP and 0.1% CHAPS) was added. The final concentration of DMSO in the reaction was 5%. The resulting mixture was incubated at room temperature in the dark for one hour, at which time 2 µL of ADP-Glo reagent 1 were added to stop the reaction and remove any remaining ATP. After a 45-minute incubation, 4 µL of the ADP-Glo reagent 2 were added and allowed to incubate for 30 minutes. The luminescence was then read with a ViewLux high-throughput CCD imager (Perkin Elmer, Waltham, MA, USA). A total of six plates were assayed: one DMSO plate for monitoring the background trends and five concentrations of the LOPAC library (152, 76, 15, 3 and 0.6 µM final assay concentrations, respectively). The top concentration in the assay was attained by two sequential pin transfers of the top concentration of the compound library.
Screening data were corrected and normalized, and concentration-response curves were derived using in-house algorithms. Overall assay performance, including trends in Z’ factor, % CV, and S/B, were recorded. Percent activity was computed after normalization using the median values of the uninhibited enzyme control (32 wells in column 1) and the no-enzyme, or 100% inhibited, control (32 wells, column 4). Additionally, the compound structures were evaluated, and the long chain compounds such as the C18 containing compounds from LOPAC^1280 that are likely to act by disrupting the lipid vesicles were eliminated. Selected actives were procured for re-testing in the primary screening assay and for use in the counter assays and substrate competition assay.

GST-PI5P4Kα = biological target: T2, GST-PI5P4Kα (Homo sapiens, UniProt P48426); test: γ-32P-ATP incorporation assay and TLC (radiometric PI5P4K assay); assay type: biochemical
T2 construct: made in house
T2 sequence (P48426 1-406): T1 sequence (P48426 1-406)
Procedure: The PI5P4K assay was carried out as described in [10], [22], [23]. Briefly, the kinase reaction was carried out in a total of 50 µL of kinase buffer containing 20 µL of the resuspended lipids, 50 mM HEPES pH 7.4, 10 mM MgCl2, 10 µM non-radiolabeled ATP, 10 µCi [γ-^32P]-ATP with 0.1 µg of GST-PI5P4Kα for 7 minutes at room temperature. The reaction was terminated by adding 20 µL of 4 N HCl. Phosphoinositides were extracted by adding 70 µL of methanol/chloroform (1∶1, vol:vol) mix and subjected to TLC (thin-layer chromatography) separation using heat-activated 2% […] silica gel 60 plates (20 cm×20 cm, EMD Chemicals Inc., Billerica, MA, USA) and a 1-propanol/2 M acetic acid (65∶35, vol:vol) solvent system. The radiolabeled product, PI(4,5)P2, was quantified with a Phosphorimager (Molecular Dynamics, STORM840, GE Healthcare, Waukesha, WI, USA).

PI5P4Kα [2] = biological target: T1, PI5P4Kα; test: Substrate (ATP) competition assay, miniaturized ADP-Glo PI5P4Kα assay; assay type: biochemical; conditions: for mode of inhibition with respect to ATP: IC50 vs [ATP]/Km, seven ATP concentrations; for dependence of potency on ATP: varied ATP concentration
Description: The experiment was otherwise conducted as described above for the miniaturized ADP-Glo enzyme assay.

PI5P4Kα [3] = biological target: T1, PI5P4Kα; test: Miniaturized 1536-well luciferase-coupled bioluminescence (ADP-Glo) PI5P4Kα enzyme activity assay; assay type: biochemical; conditions: freshly plated stock of reacquired compound, 11-point titration
IGF1R = test system: IGF1R; design: method as in PMID 11123895; conditions: cited from earlier work
[4] = biological target: insulin-like growth factor 1 receptor (IGF1R); design: method as in PMID 11123895; conditions: cited from earlier work
[5] = LOPAC1280 qHTS pilot screen, 5 µM ATP, 75 µM PI5P, 5% DMSO

With `CCCCCCCCCCCCCCCCCCOC[C@H](COP(=O)(O)OCC[N+](C)(C)C)OC` [1-O-Octadecyl-2-O-methyl-sn-glycero-3-phosphorylcholine] the “inhibitory activity against PI5P4Kα (in words)” value (PI5P4Kα [1]) was “identified as inhibitors”.
For `CC(C)(C)c1cc(C=C(C#N)C#N)cc(C(C)(C)C)c1O` [AG17], the “inhibition of PI5P4Kα (in words)” value (GST-PI5P4Kα; tested at 100 µM) was “not to significantly inhibit”.
In the case of `N#CC(C#N)=Cc1ccc(O)c(O)c1` [AG18], the “inhibition of PI5P4Kα (in words)” value (GST-PI5P4Kα; tested at 100 µM) is reported as “not to significantly inhibit”.
For `COc1cc(/C=C(\C#N)C(=O)c2ccc(O)c(O)c2)cc(I)c1O` [I-OMe-AG-538], the IC50 (PI5P4Kα [1]; [5]) was 2.5 µM and 2 µM, the “mode of inhibition with respect to ATP” value (PI5P4Kα [2]) was “competitive inhibition; also recorded: competitive with respect to ATP” and the “mode of inhibition with respect to ATP” value (PI5P4Kα [2]; listed as I-OMe tyrphostin AG-538) was “ATP-competitive inhibitor”. The Ki (PI5P4Kα [2]; seven ATP concentrations 0.25xKm to 10xKm, Km of ATP 5 µM) was 0.5 µM, the IC50 (PI5P4Kα [3]) was 1 µM and the “inhibition of IGF1R in a cell assay (in words)” value (IGF1R) was “inhibited IGF1R in a similar dose-dependent manner”.
In the case of `COc1c(C)c2c(c(O)c1C/C=C(\C)CCC(=O)O)C(=O)OC2` [MP, mycophenolate], the “inhibition of PI5P4Kα (in words)” value (GST-PI5P4Kα; tested at 100 µM) is reported as “not to significantly inhibit”.
For `CCCCCCCC/C=C\CCCCCCCC(=O)N[C@@H](CO)Cc1ccc(O)cc1` [OMDM-2, (R)-N-oleoyl Tyrosinol], the IC50 (PI5P4Kα [1]; weak inhibitors, ADP-Glo assay) was roughly 30 µM and the “dependence of potency on ATP” value (PI5P4Kα [2]) was “did not vary with ATP”.
In the case of `CC(C)[C@H](CO)Nc1nc(Nc2ccc(C(=O)O)c(Cl)c2)c2ncn(C(C)C)c2n1` [PVB, purvalanol B], the “inhibition of PI5P4Kα (in words)” value (GST-PI5P4Kα; tested at 10 µM due to solubility limitations) is reported as “not to significantly inhibit”.
For `Cc1[nH]c(/C=C2\C(=O)Nc3ccccc32)c(C)c1CCC(=O)O` [SU6668], the “inhibition of PI5P4Kα (in words)” value (GST-PI5P4Kα; tested at 100 µM) was “not to significantly inhibit”.
With `N#CC(C#N)=Cc1cc(O)c(O)c(O)c1` [Tyrphostin AG-82] the IC50 (PI5P4Kα [1]; [5]) was 93 µM, the “inhibitory activity against PI5P4Kα (in words)” value (PI5P4Kα [1]) was “confirmed” and the inhibition at 100 µM (GST-PI5P4Kα; tested at 100 µM) was 75%.
With `CCCCCCCC/C=C\CCCCCCCC(N)=O` [oleamide] the IC50 (PI5P4Kα [1]; weak inhibitors, ADP-Glo assay) was roughly 30 µM and the “dependence of potency on ATP” value (PI5P4Kα [2]) was “did not vary with ATP”.
In the case of `N#CC(C#N)=Cc1ccc(O)c(O)c1` [tyrphostin 23], the IC50 (PI5P4Kα [1]; [5]) is reported as 45 µM.
`N#C/C(=C\c1ccc(O)c(O)c1)C(N)=S` [tyrphostin 47] showed an IC50 (PI5P4Kα [1]; [5]) of 20 µM.
With `N#CC(C#N)=C(N)/C(C#N)=C/c1cc(O)c(O)c(O)c1` [tyrphostin 51] the IC50 (PI5P4Kα [1]; [5]) was 5 µM.
`N#C/C(=C\c1ccc(O)c(O)c1)C(=O)NCc1ccccc1` [tyrphostin AG 490] gave an IC50 (PI5P4Kα [1]; [5]) of 89 µM.
With `N#C/C(=C\c1ccc(O)c(O)c1)C(=O)Nc1ccccc1` [tyrphostin AG 494] the IC50 (PI5P4Kα [1]; [5]) was 89 µM.
With `N#C/C(=C\c1ccc(O)c(O)c1)C(=O)NCCCNC(=O)/C(C#N)=C/c1ccc(O)c(O)c1` [tyrphostin AG 537] the IC50 (PI5P4Kα [1]; [5]) was 32 µM.
For `N#C/C(=C\c1ccc(O)c(O)c1)C(=O)c1ccc(O)c(O)c1` [tyrphostin AG 538], the IC50 (PI5P4Kα [1]; [5]) is given as 14 µM, the IC50 [4] is given as 0.06 µM and the “inhibition of IGF1R in a cell assay (in words)” value (IGF1R) is given as “inhibited IGF1R in a similar dose-dependent manner”.
In the case of `N#C/C(=C\c1ccc(O)c(O)c1)C(=O)NCCCc1ccccc1` [tyrphostin AG 555], the IC50 (PI5P4Kα [1]; [5]) is reported as 50 µM.
Work on `N#C/C(=C\c1c[nH]c2ccccc12)C(=O)c1ccc(O)c(O)c1` [tyrphostin AG 808] yielded an IC50 (PI5P4Kα [1]; [5]) of 18 µM.
For `COc1cc2ncnc(Nc3cccc(Cl)c3)c2cc1OC` [tyrphostin AG 1478], the IC50 (PI5P4Kα [1]; [5]) was 100 µM.
